Test results taken from patent US8993628B2, “Synthetic ligands selective for LXRβ over LXRα, identification and methods of use thereof” (City of Hope, priority 2007, dated 2015).
Entries after “also recorded” stand apart in the source; their conditions may differ.

Key:
human LXRβ [1] = assay: GAL4-LXRβ reporter gene assay in transiently transfected CV-1 cells; type: cell-based; conditions: for LXRβ-selectivity factor, fold activation of LXRβ/LXRα: 10 μM, CV-1 reporter gene assays; for activation of LXRβ: reporter gene assay, CV-1 cells
Description: (§1) Several potential LXR ligands were synthesized as described in Example 5. These compounds were assayed for activity on human LXRα and LXRβ using high-throughput reporter gene assays (e.g., reporter gene assays using Biomek automated workstation) in transiently transfected CV-1 cells.
(§2) In the reporter gene assay CV-1 cells were grown in Dulbecco's Modified Eagle's medium supplemented with 10% resin-charcoal stripped fetal bovine serum, 50 U/ml penicillin G and 50 μg/ml streptomycin sulfate (DMEM-FBS) at 37° C. in 5% CO2. One day prior to transfection, cells were plated to 50-80% confluence using phenol-red free DMEM-FBS. Cells were transiently transfected by lipofection with DOTAP. A GAL4 luciferase reporter construct (300 ng/10^5 cells) and cytomegalovirus driven expression vectors for GAL4-LXRα or GAL4-LXRβ (20-50 ng/10^5 cells) were added along with CMX-βgal (500 ng/10^5 cells) as an internal control. After 2 hours the liposomes were removed and cells treated for approximately 45 hours with phenol-red free DMEM-FBS containing the indicated LXR ligands. After exposure to ligand, the cells were harvested and assayed for luciferase and β-galactosidase activity. All points were assayed in triplicate. […] Use of reporter gene assays are known in the art and described for example in Sambrook et al., Molecular Cloning: A Laboratory Manual, 2nd Ed., Cold Spring Harbor Laboratory Press, Cold Spring Harbor, N.Y.

human LXRβ [2] = target: T1, human LXRβ (Homo sapiens, UniProt P55055); assay: as above; type: cell-based; conditions: reporter gene assay, CV-1 cells; FIG. 2 left; receptor subtype not stated
T1 construct: EC50; other: reporter gene assay, CV-1 cells
T1 sequence (P55055 222-460): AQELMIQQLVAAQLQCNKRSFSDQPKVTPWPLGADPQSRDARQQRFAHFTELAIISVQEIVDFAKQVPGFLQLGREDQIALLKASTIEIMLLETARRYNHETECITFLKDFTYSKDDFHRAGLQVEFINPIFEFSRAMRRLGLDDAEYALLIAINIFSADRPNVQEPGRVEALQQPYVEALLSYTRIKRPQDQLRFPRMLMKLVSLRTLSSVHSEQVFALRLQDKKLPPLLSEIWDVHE
Description: as §1, §2

ABCA1 = assay: Gene expression analysis of endogenous LXR target gene ABCA1 in H4 cells; type: cell-based, human; conditions: for induction of ABCA1 expression: H4 neuroglioma cells, compared with T0901317
Description: (§3) The effect of various concentrations of LXRβ-selective compounds on endogenous LXR target genes in H4 cells was examined. […] Induction of ABCG1, another lipid-transporter regulated by LXR, was also observed in H4 cells treated with T0901317, DY136 and DY142. […] Gene expression analysis was conducted to measure the endogenous LXR target genes. Briefly, cells were plated in a 6-well plate at the following densities/well: 0.35 million H4 cells (DMEM, 10% FBS), 0.5 million CCF-STTG1 (RPMI, 15% FBS), 1 million SH-SY5Y (RPMI, 15% FBS), or 1 million THP (RPMI, 15% FBS+100 nM TPA for 3 days to differentiate). The cells were treated the next day in serum-free DMEM supplemented with insulin, transferrin, and selenium and apoA1 (10 μg/ml). The media was harvested 24 hours later, mixed with a protease inhibitor cocktail (Roche), debris was pelleted (14000 g, 5 min.) and the supernatant saved for Aβ measurements (below). The cells were then rinsed with PBS and lysed with Trizol reagent. RNA isolation and cDNA synthesis (OmniScript, Qiagen) were as per manufacturer's protocol. Gene expression analysis was done in triplicate with 30 ng of cDNA and the following primer-sets: ABCA1, ABCG1, SREBP1c, GAPDH, HPRT (either SYBR Green or FAM-labeled LUX primers (Invitrogen). None of these primers produce primer-dimers or amplified genomic DNA (all primer-sets are intron spanning). The signal for each target gene was normalized to GAPDH and/or HPRT.

ABCG1 = assay: Gene expression analysis of endogenous LXR target gene ABCG1 in H4 cells; type: cell-based, human
Description: as §3

apoE = assay: Gene expression analysis of apoE in H4 cells; type: cell-based, human; conditions: H4 neuroglioma cells
SREBP1c = assay: Gene expression analysis of endogenous LXR target gene SREBP1c in H4 cells; type: cell-based, human; conditions: compared with T0901317
Description: as §3, with “Gene expression analysis was done in triplicate with 30 ng of cDNA and the following primer-sets: ABCA1, ABCG1, SREBP1c, GAPDH, HPRT (either SYBR Green or FAM-labeled LUX primers (Invitrogen). None of these primers produce primer-dimers or amplified genomic DNA (all primer-sets are intron spanning). The signal for each target gene was normalized to GAPDH and/or HPRT.” left out

Aβ40 = Aβ40 secreted into the media of H4 cells (ELISA kit); type: cell-based, human; conditions: 1 μM, 24 hours
Description: In order to confirm the effects of LXR activation on Aβ production in human cells, human H4 neuroglioma cells were treated with the pan-LXR agonist T0901317 (1 μM) for 24 hours and measured the amount of total cellular cholesterol remaining in the cells and the amount of Aβ40 secreted into the media (FIG. 1). As expected, T0901317 reduced both intracellular cholesterol levels as well as secreted Aβ40. […] Also as expected, T0901317 induced a greater than 50-fold increase in ABCA1 expression in H4 cells (FIG. 2). […] To quantify Aβ production, cells were cultured as described above (gene expression analysis). Media was added to the diluent Buffer provided with the kit and assayed according to the manufacturer's instructions (Biosource).

[3] = system: mouse Neuro2A cells expressing human APPswe; conditions: cited from earlier work
[4] = system: human H4 neuroglioma cells; assay: Quantification of total cellular cholesterol in H4 cells (GC-MS); type: cell-based; conditions: 1 μM, 24 hours
Description: In order to confirm the effects of LXR activation on Aβ production in human cells, human H4 neuroglioma cells were treated with the pan-LXR agonist T0901317 (1 μM) for 24 hours and measured the amount of total cellular cholesterol remaining in the cells and the amount of Aβ40 secreted into the media (FIG. 1). As expected, T0901317 reduced both intracellular cholesterol levels as well as secreted Aβ40. […] Also as expected, T0901317 induced a greater than 50-fold increase in ABCA1 expression in H4 cells (FIG. 2). […] For quantification of total cellular cholesterol, H4 cells are seeded in 12-well plates at 70,000 per well. Cells are treated with DMSO (vehicle) or T0901317 in serum-free DMEM for 24 hours in presence of 10 μg/ml apoA1. Cells were lysed with 1N NaOH in 90% ethanol and 10 μM of 5α-cholestane as an internal control tracer. Cholesterol esters were hydrolyzed by incubation at 65° C. for 2 hours. Equal volume of water is added to the samples, and extracted twice with 2 volumes of hexane.

[5] = system: transgenic mice expressing human APPswe; conditions: one-week treatment; cited from earlier work
[6] = system: primary neuronal and astrocyte cultures; conditions: cited from earlier work
human LXRα = assay: GAL4-LXRα reporter gene assay in transiently transfected CV-1 cells; type: cell-based
Description: as §1
In the reporter gene assay CV-1 cells were grown in Dulbecco's Modified Eagle's medium supplemented with 10% resin-charcoal stripped fetal bovine serum, 50 U/ml penicillin G and 50 μg/ml streptomycin sulfate (DMEM-FBS) at 37° C. in 5% CO2. One day prior to transfection, cells were plated to 50-80% confluence using phenol-red free DMEM-FBS. Cells were transiently transfected by lipofection with DOTAP. A GAL4 luciferase reporter construct (300 ng/10^5 cells) and cytomegalovirus driven expression vectors for GAL4-LXRα or GAL4-LXRβ (20-50 ng/10^5 cells) were added along with CMX-βgal (500 ng/10^5 cells) as an internal control. After 2 hours the liposomes were removed and cells treated for approximately 45 hours with phenol-red free DMEM-FBS containing the indicated LXR ligands. After exposure to ligand, the cells were harvested and assayed for luciferase and β-galactosidase activity. All points were assayed in triplicate. […]

C57BL/6 mice = conditions: 1 week of treatment; cited from earlier work
LXR = conditions: cited from earlier work

Structure (SMILES) | LXRβ-selectivity factor, fold activation of LXRβ/LXRα (human LXRβ [1]) | EC50 (human LXRβ [2]) [nM] | induction of ABCA1 expression (ABCA1) | induction of ABCG1 (ABCG1) | ApoE expression (apoE) | induction of SREBP1c (SREBP1c) | activation of LXRβ (human LXRβ [1]) | increase in ABCA1 expression (ABCA1; H4 cells) | secreted Aβ40 (Aβ40) | Aβ production [3] | intracellular cholesterol levels (total cellular cholesterol) [4] | Aβ40 and Aβ42 in the brain [5] | cholesterol efflux [6] | activation of LXRα (human LXRα) | hypertriglyceridemia (C57BL/6 mice) | association of LXR with a coactivator peptide derived from SRC-1 (LXR)
O=C(O)Cc1cccc(OCCCN(Cc2cccc(C(F)(F)F)c2)CC(c2ccccc2)c2ccccc2)c1 [DY142, (3-{3-[(2,2-Diphenyl-ethyl)-(3-trifluoromethyl-benzyl)-amino]-propoxy}-phenyl)-acetic acid] | 6.5 | 1000 to 3000 | expected activation; also recorded: to a level nearly that of the pan-agonist T0901317 | observed | increased by all three ligands, although the effects were slightly lower | little effect; also recorded: only half that observed with T0901317 | – | – | – | – | – | – | – | – | – | –
O=S(=O)(c1ccccc1)N(CC(F)(F)F)c1ccc(C(O)(C(F)(F)F)C(F)(F)F)cc1 [T0901317] | 1.7 | – | – | observed | increased | – | activated | greater than 50 fold | reduced | decreased | reduced | significant decrease | enhanced cholesterol efflux | activated | induces severe hypertriglyceridemia | –
O=C(O)Cc1cccc(OCCCN(Cc2cccc(C(F)(F)F)c2F)CC(c2ccccc2)c2ccccc2)c1 [DY136, (3-{3-[(2,2-Diphenyl-ethyl)-(2-fluoro-3-trifluoromethyl-benzyl)-amino]-propoxy}-phenyl)-acetic acid] | 3.4 | 1000 to 3000 | expected activation; also recorded: to a level nearly that of the pan-agonist T0901317 | observed | increased | little effect; also recorded: only half that observed with T0901317 | – | – | – | – | – | – | – | – | – | –
O=C(O)Cc1cccc(OCCCN(Cc2cccc(C(F)(F)F)c2Cl)CC(c2ccccc2)c2ccccc2)c1 [GW3965] | 2.2 | – | – | – | – | – | activated | – | – | – | – | – | – | activated | – | promotes association
